According to US11452758B2, “Antimicrobial peptide derived from LL37 peptide and uses thereof” (INDUSTRY-ACADEMIC COOPERATION FOUNDATION, CHOSUN UNIVERSITY, priority 2018, dated 2022):
In brackets after ≈: the same amount, converted by molar mass. Where a SMILES comes first, the peptide text is derived from it.

Columns and labels:
[1] = tested on: S. aureus ATCC 25923; assay type: cell-based, Staphylococcus aureus; details: ATCC 25923, 18 h
Source text: (§1) To compare the antimicrobial activity among the peptides produced by the method of Example 1, the inventors of the present invention measured the minimal growth inhibitory concentration (MIC), which is minimum concentration of the peptide not allowing any […] of bacterial cells.
(§2) Specifically, the bacterial strains described in the following Table 2 were purchased and cultured to a mid-log phase in MHB (Mueller Hinton Broth) medium. Then, after dilution to bacterial cell concentration of 2×10^5 cells/50 μl, the cells were inoculated to a microtiter plate (NUNC, USA). Thereafter, LL37-1, LL37-2, LL37-3 or LL37-4 peptide which has been synthesized in Example 1 above was subjected to serial dilution, ½ times for each, in a 96-well plate. After adding the peptides in an amount of 50 μl to the cell plate, the cells were cultured for 18 hours at 37° C. By using a microtiter plate reader (Merck Elisa reader, Germany), the absorbance was measured at a wavelength of 600 nm to determine the MIC value of each bacterial strain. As a control group, LL37 as a mother peptide was used and subjected to the same process as above to determine the MIC value of each strain.

[2] = tested on: A. baumannii #10; assay type: cell-based, Acinetobacter baumannii; details: #10
Source text: as §1, §2

[3] = tested on: A. baumannii #11; assay type: cell-based, Acinetobacter baumannii; details: #11
Source text: as §1, §2

[4] = tested on: A. baumannii #12; assay type: cell-based, Acinetobacter baumannii; details: #12
Source text: as §1, §2

[5] = tested on: A. baumannii #13; assay type: cell-based, Acinetobacter baumannii; details: #13
Source text: as §1, §2

[6] = tested on: A. baumannii #19; assay type: cell-based, Acinetobacter baumannii; details: #19
Source text: as §1, §2

[7] = tested on: A. baumannii #2; assay type: cell-based, Acinetobacter baumannii; details: #2
Source text: as §1, §2

[8] = tested on: A. baumannii #3; assay type: cell-based, Acinetobacter baumannii; details: #3
Source text: as §1, §2

[9] = tested on: A. baumannii #4; assay type: cell-based, Acinetobacter baumannii; details: #4
Source text: as §1, §2

[10] = tested on: A. baumannii #5; assay type: cell-based, Acinetobacter baumannii; details: #5
Source text: as §1, §2

[11] = tested on: A. baumannii #8; assay type: cell-based, Acinetobacter baumannii; details: #8
Source text: as §1, §2

[12] = tested on: A. baumannii #9; assay type: cell-based, Acinetobacter baumannii; details: #9
Source text: as §1, §2

[13] = tested on: A. baumannii KCTC 2508; assay type: cell-based, Acinetobacter baumannii; details: for Minimal inhibitory concentration: KCTC 2508, 18 h
Source text: as §1, §2

[14] = tested on: P. aeruginosa ATCC 27853; assay type: cell-based, Pseudomonas aeruginosa; details: ATCC 27853, 18 h
Source text: as §1, §2

[15] = Cytotoxicity in normal cell line (MTT); assay type: cell-based, human; details: human
Protocol: To determine the cytotoxicity of the peptides produced by the method of Example 1 in normal cell line, cytotoxicity was measured by using normal human keratinocyte cell line (HaCaT) and normal human fibroblast cell line (Hs27).
Specifically, normal human keratinocyte (HaCaT) cells and normal human fibroblast (Hs27) cells, which have been cultured in DMEM medium containing 10% FBS (fetal bovine serum), were aliquoted in a microtiter plate to have 1×10^4 cells per well. After culturing them for 24 hours, the cells were subjected to a treatment with LL37, LL37-1, LL37-2, LL37-3 or LL37-4 peptide, each at concentration of 0.5, 1, 2, 4, 8, 16 or 32 μM/well, followed by reaction for 24 hours in a 5% CO2 incubator. After culture, a reaction solution containing 5 mg/ml MTT (Thiazolyl Blue Tetrazolium Bromide) dissolved in phosphate buffered saline (PBS) was added in an amount of 10 μl to each well and the reaction was allowed to occur for 1 hour. After that, the supernatant was discarded, and, by dissolving MTT crystals that are formed by adding 200 μl DMSO (dimethyl sulfoxide), the absorbance at 570 nm was measured to determine the cell survival ability.

[16] = tested on: Acinetobacter baumannii KCTC 2508; experiment: Low vacuum scanning electron microscopy (membrane-disrupting property); assay type: cell-based; details: peptide at MIC concentration, 30 minutes at 37° C.
Protocol: To specifically determine the degree of antimicrobial activity of the synthesized peptides of the present invention, the influence of mother peptide LL37 and homologous peptides LL37-1, LL37-2, LL37-3 and LL37-4 on bacteria membrane, i.e., membrane-disrupting property, was determined by low vacuum scanning electron microscopy.
Specifically, Acinetobacter baumannii KCTC 2508 cells were cultured to a mid-log phase in MHB medium, and then diluted to a cell concentration of 2×10^7 cells/ml in physiological saline containing 10% MHB medium. […] After that, by using 2.5% glutaraldehyde, the bacterial cells were fixed for 30 minutes at room temperature and then for 12 hours at 4° C. After carrying out washing with buffer, the cells were fixed again with […] and dehydrated in stepwise manner by using ethanol. After the dehydration, platinum coating was carried out and the cells were observed by low vacuum scanning electron microscopy.

Compound	Minimal inhibitory concentration [1]	Minimal inhibitory concentration [2]	Minimal inhibitory concentration [3]	Minimal inhibitory concentration [4]	Minimal inhibitory concentration [5]	Minimal inhibitory concentration [6]	Minimal inhibitory concentration [7]	Minimal inhibitory concentration [8]	Minimal inhibitory concentration [9]	Minimal inhibitory concentration [10]	Minimal inhibitory concentration [11]	Minimal inhibitory concentration [12]	Minimal inhibitory concentration [13]	Minimal inhibitory concentration [14]	viability at 24 h, 0.5 µM ([15]; HaCaT keratinocyte cells)	viability at 24 h, 1 µM ([15]; HaCaT keratinocyte cells)	viability at 24 h, 2 µM ([15]; HaCaT keratinocyte cells)	viability at 24 h, 4 µM ([15]; HaCaT keratinocyte cells)	viability at 24 h, 8 µM ([15]; HaCaT keratinocyte cells)	viability at 24 h, 16 µM ([15]; HaCaT keratinocyte cells)	also measured
CC[C@H](C)[C@H](NC(=O)[C@H](CCCNC(=N)N)NC(=O)[C@H](CCC(N)=O)NC(=O)[C@@H](NC(=O)[C@@H](NC(=O)[C@H](CCCNC(=N)N)NC(=O)[C@H](CCCCN)NC(=O)[C@H](Cc1ccccc1)NC(=O)[C@H](CCC(=O)O)NC(=O)[C@@H](N)CCCCN)[C@@H](C)CC)C(C)C)C(=O)N[C@@H](CCCCN)C(=O)N[C@@H](CCCCN)C(=O)N[C@@H](Cc1ccccc1)C(=O)N[C@@H](CC(C)C)C(=O)N[C@@H](CCCNC(=N)N)C(=O)N[C@@H](CC(N)=O)C(N)=O [LL37-3, KEFKRIVQRIKKFLRN-NH2] (H-KEFKRIVQRIKKFLRN-NH2; N-terminus assumed)	4 µM (≈ 8.41 µg/mL)	2 µM (≈ 4.21 µg/mL)	2 µM (≈ 4.21 µg/mL)	4 µM (≈ 8.41 µg/mL)	2 µM (≈ 4.21 µg/mL)	4 µM (≈ 8.41 µg/mL)	4 µM (≈ 8.41 µg/mL)	4 µM (≈ 8.41 µg/mL)	4 µM (≈ 8.41 µg/mL)	4 µM (≈ 8.41 µg/mL)	2 µM (≈ 4.21 µg/mL)	2 µM (≈ 4.21 µg/mL)	16 µM (≈ 33.6 µg/mL)	8 µM (≈ 16.8 µg/mL)	96%	100%	101%	98%	98%	104%	viability at 24 h, 32 µM ([15]; HaCaT keratinocyte cells): 104%; viability at 24 h, 0.5 µM ([15]; Hs27 fibroblast cells): 94%; viability at 24 h, 1 µM ([15]; Hs27 fibroblast cells): 92%; viability at 24 h, 2 µM ([15]; Hs27 fibroblast cells): 93%; viability at 24 h, 4 µM ([15]; Hs27 fibroblast cells): 90%; viability at 24 h, 8 µM ([15]; Hs27 fibroblast cells): 91%; viability at 24 h, 16 µM ([15]; Hs27 fibroblast cells): 93%; viability at 24 h, 32 µM ([15]; Hs27 fibroblast cells): 95%; membrane-disrupting property (scanning electron microscopy) [16]: disruption of bacteria membrane
CC[C@H](C)[C@H](NC(=O)[C@H](CCCNC(=N)N)NC(=O)[C@H](CCC(N)=O)NC(=O)[C@@H](NC(=O)[C@@H](NC(=O)[C@H](CCCNC(=N)N)NC(=O)[C@H](CCCCN)NC(=O)[C@H](Cc1ccccc1)NC(=O)[C@H](CCCCN)NC(=O)[C@@H](N)CCCCN)[C@@H](C)CC)C(C)C)C(=O)N[C@@H](CCCCN)C(=O)N[C@@H](CCCCN)C(=O)N[C@@H](Cc1ccccc1)C(=O)N[C@@H](CC(C)C)C(=O)N[C@@H](CCCNC(=N)N)C(=O)N[C@@H](CC(N)=O)C(N)=O [LL37-4, KKFKRIVQRIKKFLRN-NH2] (H-KKFKRIVQRIKKFLRN-NH2; N-terminus assumed)	2 µM (≈ 4.2 µg/mL)	2 µM (≈ 4.2 µg/mL)	2 µM (≈ 4.2 µg/mL)	2 µM (≈ 4.2 µg/mL)	2 µM (≈ 4.2 µg/mL)	4 µM (≈ 8.41 µg/mL)	2 µM (≈ 4.2 µg/mL)	2 µM (≈ 4.2 µg/mL)	2 µM (≈ 4.2 µg/mL)	2 µM (≈ 4.2 µg/mL)	2 µM (≈ 4.2 µg/mL)	2 µM (≈ 4.2 µg/mL)	4 µM (≈ 8.41 µg/mL)	4 µM (≈ 8.41 µg/mL)	100%	103%	97%	96%	92%	94%	Minimal inhibitory concentration of antimicrobial peptide ([13]; KCTC 2508): 4 µM; viability at 24 h, 32 µM ([15]; HaCaT keratinocyte cells): 101%; viability at 24 h, 0.5 µM ([15]; Hs27 fibroblast cells): 94%; viability at 24 h, 1 µM ([15]; Hs27 fibroblast cells): 94%; viability at 24 h, 2 µM ([15]; Hs27 fibroblast cells): 97%; viability at 24 h, 4 µM ([15]; Hs27 fibroblast cells): 90%; viability at 24 h, 8 µM ([15]; Hs27 fibroblast cells): 93%; viability at 24 h, 16 µM ([15]; Hs27 fibroblast cells): 96%; viability at 24 h, 32 µM ([15]; Hs27 fibroblast cells): 93%; membrane disruption compared to LL37-1 and LL37-3 (scanning electron microscopy) [16]: disrupted more; membrane-disrupting property (scanning electron microscopy) [16]: disruption of bacteria membrane
